Structures are written as SMILES. Entries after “also recorded” stand apart in the source; their conditions may differ.

Data on two compounds can be found in patent US20120128654A1, “Allantoin Administration for the Treatment of Neurodegenerative Disease and Neurotrauma” (UNIVERSITY OF CINCINNATI, priority 2009, published 2012).

For assay [1], the system named is nigral THir neurons. As to the kind of experiment: Unbiased stereological counts of THir cells in the substantia nigra after striatal 6-OHDA. The format is in vivo, Sprague Dawley rats. As to conditions: for number of surviving THir neurons in the lesioned SN relative to the intact side: s.c. pellets 3 days prior to intrastriatal 6-OHDA, 6 weeks post-6-OHDA (experiment 1); for protection of nigral THir neurons against striatal 6-OHDA infusion: s.c. pellets, 6 weeks post-6-OHDA, vs control. As for the experimental part:
Rats were anesthetized prior to surgery with Equi-Thesin (0.3 ml/100 g body weight i.p.; chloral hydrate 42.5 mg/ml+sodium pentobarbital 9.72 mg/ml), their heads shaved, and then they were placed in a stereotaxic frame. Their skin was swabbed with Betadyne followed by 70% ETOH. The scalp was then opened to expose the skull. Two 1 mm holes were drilled into the skull and rats were injected in two sites in the striatum with 6-OHDA (MP Biomedicals, Solon, Ohio; 5 μg/μl 6-OHDA in 0.2% ascorbic acid, 0.9% saline solution). The coordinates for these injections were AP −1.6 mm, ML +2.4 mm, DV −4.2 mm and AP −0.2 mm, +ML 2.6 mm, DV −7.0 mm. The needle was zeroed at the skull directly above the injection site in order to target the DV coordinate. For each injection, the needle was lowered slowly to the injection site and 1 minute elapsed before injection commenced, 6-OHDA was injected at 0.5 μl/minute and at the end of the injection the needle was held in place for an additional 2 minutes prior to retraction. The wound area was cleaned with Betadine solution and the scalp was closed with surgical wound clips. This lesion paradigm results in a progressive loss of TH phenotype and frank DA cell death.
Animals were deeply anesthetized (60 mg/kg, pentobarbital, i.p.) and perfused intracardially with warm 0.9% saline containing 1 ml/L 10,000 USP heparin followed by ice-cold 0.9% saline. For immunoshistochemistry brains were removed, post fixed for 24 hours in 4% paraformaldehyde and transferred to 30% sucrose in 0.1M PO4 buffer. For determination of purine levels brains were immediately removed and flash frozen in 3-methyl butane. Brains were stored at −80° C. until analysis.
Brains were frozen on dry ice and sectioned at a 40 μm thickness using a sliding microtome. Every sixth section through the SN was processed for labeling with antisera against TH. Following blocking in 10% normal goat serum, tissue was incubated in primary antisera directed against TH (Chemicon MAB318, mouse anti TH 1:4,000) overnight at room temperature. Following primary incubation, sections were incubated in biotinylated secondary antisera against mouse IgG (Chemicon AP124B, 1:400) followed by the Vector ABC detection kit employing horseradish peroxidase (Vector Laboratories, Burlingame, Calif.). Antibody labeling was visualized by exposure to 0.5 mg/ml 3,3′ diaminobenzidine (DAB) and 0.03% H2O2 in Tris buffer. Sections were mounted on subbed slides, dehydrated to xylene and coverslipped with Cytoseal (Richard-Allan Scientific, Waltham, Mass.).
Unbiased stereological counts of THir cells were performed using a BX52 Olympus microscope (Olympus America Inc.) interfaced with Microbrightfield stereological software and a Microfire CCD camera (Optronics, Goleta, Calif.). Utilizing 2 μm guard zones and a 50 μm×50 μm counting frame a grid size of 112 μm×183 μm was employed to assure that all coefficient of error values were ≦0.10. Using the optical fractionator principle, the regions of interest were individually outlined under a low magnification (1.25×). Using a 60× magnification lens with a 1.4 N/A the section thickness was empirically determined by first bringing the top of the section into focus and then using Microbrightfield software to step through the z-axis in 1 μm increments until the very bottom of the section was in focus. […]

The subject of assay [2] is 6-OHDA induced forelimb akinesia. The assay is described as follows: Cylinder testing for forelimb akinesia after intrastriatal 6-OHDA. The format is in vivo, Sprague Dawley rats. The following applies: cylinder test, s.c. pellets implanted 3 days prior to intrastriatal 6-OHDA, four and six weeks post lesion, vs control. From the text:
Continuous s.c. delivery of INO, KO and ALL was achieved by implanting matrix-driven pellets into the s.c. space. Animals were anesthetized with isofluorane and prepared for surgery using sterile procedures. A small incision was made posterior to the scapula and the pellet was placed in the subscapular space contralateral to the incision. This placement technique prevents migration of the pellet towards the incision, thereby reducing the incidents of rejection. Finally, the incision was closed using aseptic procedures. To determine the roles of UA and allantoin in inosine-mediated neuroprotection, animals were treated with the urate oxidase inhibitor KO. This approach has been widely used to prevent the enzymatic metabolism of UA to allantoin in other rodent models of disease.
Rats were anesthetized prior to surgery with Equi-Thesin (0.3 ml/100 g body weight i.p.; chloral hydrate 42.5 mg/ml+sodium pentobarbital 9.72 mg/ml), their heads shaved, and then they were placed in a stereotaxic frame. Their skin was swabbed with Betadyne followed by 70% ETOH. The scalp was then opened to expose the skull. Two 1 mm holes were drilled into the skull and rats were injected in two sites in the striatum with 6-OHDA (MP Biomedicals, Solon, Ohio; 5 μg/μl 6-OHDA in 0.2% ascorbic acid, 0.9% saline solution). […]
Non-drugged, spontaneous use of the forepaws was measured in rats as described by Schallert (Schallert, T., Behavioral tests for preclinical intervention assessment, NeuroRx 3:497-504 (2006)) prior to pellet and intrastriatal 6-OHDA and at both four weeks and six weeks after 6-OHDA. […] Videotapes were analyzed by a rater blinded to treatment. The number of times the rat used its left, right, or both paws for weight bearing in a given trial was determined and noted. […]
In the first experiment, rats were divided into four different groups INO (n=6), INO/potassium oxonate (KO blocks conversion of UA to ALL) (n=6), ALL (n=6), and sham pellet implantation. […] In experiment 1, rats were assessed for forelimb akinesia prior to, and […] and 6 weeks after intrastriatal 6-OHDA infusion. […]

In the case of `NC(=O)NC1NC(=O)NC1=O` (stereo not shown) [allantoin], in assay [1], the “number of surviving THir neurons in the lesioned SN relative to the intact side” value is recorded as 61%±7.9% and the “protection of nigral THir neurons against striatal 6-OHDA infusion” value was “significantly protected”. Further, the forelimb akinesia entry in assay [2] is “reduced at four and six weeks post-lesion; also recorded: significantly attenuated”.
As to `OC[C@H]1O[C@@H](n2cnc3c(O)ncnc32)[C@H](O)[C@@H]1O` [inosine], in assay [1], the “number of surviving THir neurons in the lesioned SN relative to the intact side” value was 56%±9.0% and the “protection of nigral THir neurons against striatal 6-OHDA infusion” value was “significantly protected”. Besides, in assay [2], the forelimb akinesia entry was “significantly attenuated”. Also, in assay [2] (listed as Inosine), the forelimb akinesia result is reported as “significantly ameliorated forelimb akinesia six weeks post lesion”.
